Test results reported in ChEMBL document CHEMBL1201862, “PubChem BioAssay data set” (2004).
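Dose response: 5 concentrations. Exposure: 48 h. Format: 96-well plates. Endpoint: linear interpolation; highest concentration if not reached. GI50: concentration for 50% inhibition of growth.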 Activity calls are given as the source filed them. Cut-off read from the data, not from the text of the source: active = GI50 up to about 1.1 µM and inactive = higher.

Assays:
Assay in all cases: NCI tumour cell line growth inhibition, 48 h
HOP-92 = test system: HOP-92
SK-MEL-2 = test system: SK-MEL-2
786-0 = test system: 786-0
NCI-H460 = test system: NCI-H460
OVCAR-3 = test system: OVCAR-3
HL-60 = test system: HL-60
OVCAR-5 = test system: OVCAR-5
SNB-19 = test system: SNB-19
HOP-62 = test system: HOP-62
KM12 = test system: KM12
DMS-114 = test system: DMS-114
MOLT-4 = test system: MOLT-4
ACHN = test system: ACHN
K562 = test system: K562
NCI-H226 = test system: NCI-H226
SK-MEL-28 = test system: SK-MEL-28
UACC-62 = test system: UACC-62
MDA-N = test system: MDA-N
MDA-MB-231 = test system: MDA-MB-231
NCI/ADR-RES = test system: NCI/ADR-RES

Measured: GI50

COc1ccccc1NC(=O)C1=C(C)NC(C)=C(C(=O)Nc2ccccc2OC)C1c1ccc(N(C)C)cc1
inactive: HOP-92 6.52 µM | SK-MEL-2 19.7 µM | 786-0 33.8 µM | NCI-H460 27.5 µM | OVCAR-3 19.1 µM | HL-60 15.8 µM | OVCAR-5 39.2 µM | SNB-19 55.8 µM | HOP-62 22.3 µM | KM12 21.6 µM | DMS-114 21.8 µM | MOLT-4 18.8 µM | ACHN 33 µM | K562 18.9 µM | NCI-H226 19.6 µM | SK-MEL-28 22.6 µM

COC(=O)C(=Cc1cc(OC)c(OC)c(OC)c1-c1cc2c(cc1C(C)=O)OCO2)C(=O)OC
inactive: HOP-92 44 µM | UACC-62 32.6 µM | SK-MEL-2 32.4 µM | 786-0 33.1 µM | NCI-H460 62.8 µM | OVCAR-3 26.5 µM | HL-60 34.2 µM | OVCAR-5 43 µM | SNB-19 39 µM | HOP-62 36.8 µM | KM12 32.2 µM | DMS-114 37.5 µM | MOLT-4 52.2 µM | ACHN 46.8 µM | K562 37.6 µM | NCI-H226 50.9 µM | SK-MEL-28 33.1 µM

O=C1[C@H]2ON(c3ccccc3)C(c3ccc([N+](=O)[O-])cc3)[C@H]2C(=O)N1c1ccc(Cc2ccc(N3C(=O)[C@@H]4ON(c5ccccc5)C(c5ccc([N+](=O)[O-])cc5)[C@@H]4C3=O)cc2)cc1 (stereo not given in full)
inactive: HOP-92 52.4 µM | UACC-62 67.3 µM | SK-MEL-2 > 100 µM | 786-0 > 100 µM | NCI-H460 > 100 µM | OVCAR-3 > 100 µM | HL-60 > 100 µM | OVCAR-5 > 100 µM | SNB-19 > 100 µM | HOP-62 > 100 µM | KM12 > 100 µM | DMS-114 > 100 µM | MOLT-4 > 100 µM | ACHN > 100 µM | K562 > 100 µM | NCI-H226 > 100 µM | SK-MEL-28 > 100 µM

CC(=O)NNc1nc(C)c(C(=O)NNC(=O)C(=O)Nc2c(C)cccc2C(C)C)s1
inactive: HOP-92 78 µM | UACC-62 59.7 µM | SK-MEL-2 > 100 µM | 786-0 > 100 µM | NCI-H460 86.3 µM | OVCAR-3 36.9 µM | HL-60 46.7 µM | OVCAR-5 > 100 µM | SNB-19 > 100 µM | HOP-62 > 100 µM | KM12 95.7 µM | DMS-114 86.7 µM | MOLT-4 44.4 µM | ACHN 60.1 µM | K562 46.7 µM | NCI-H226 79.4 µM | SK-MEL-28 > 100 µM

NC(=O)N/N=C/C(/C=N/NC(N)=O)[N+](=O)[O-]
inactive: HOP-92 > 100 µM | UACC-62 > 100 µM | SK-MEL-2 > 100 µM | 786-0 > 100 µM | OVCAR-3 > 100 µM | HL-60 > 100 µM | OVCAR-5 > 100 µM | SNB-19 > 100 µM | HOP-62 > 100 µM | KM12 > 100 µM | DMS-114 > 100 µM | ACHN > 100 µM | K562 > 100 µM | NCI-H226 > 100 µM | SK-MEL-28 > 100 µM

Cc1ccccc1NC(=O)c1c(C)oc2c1C(=O)c1ccccc1C2=O
inactive: HOP-92 20.3 µM | UACC-62 22 µM | SK-MEL-2 30.5 µM | 786-0 27 µM | NCI-H460 32.4 µM | OVCAR-3 14.4 µM | HL-60 19.8 µM | OVCAR-5 > 100 µM | SNB-19 35.6 µM | HOP-62 > 56.1 µM | KM12 30.9 µM | DMS-114 24.7 µM | MOLT-4 20.1 µM | ACHN 36.9 µM | K562 22.4 µM | NCI-H226 > 38.7 µM | SK-MEL-28 27.5 µM

CC(=O)OC1COC(N2C(=O)/C(=N\NC(N)=S)c3cc(Br)ccc32)C(OC(C)=O)C1OC(C)=O (stereo not given)
inactive: HOP-92 > 100 µM | UACC-62 35.6 µM | SK-MEL-2 > 100 µM | 786-0 > 100 µM | NCI-H460 23.8 µM | OVCAR-3 51.5 µM | HL-60 25.6 µM | OVCAR-5 > 100 µM | SNB-19 > 100 µM | HOP-62 98.6 µM | KM12 39.4 µM | DMS-114 19.9 µM | MOLT-4 39.3 µM | ACHN 60.3 µM | K562 48 µM | NCI-H226 > 100 µM | SK-MEL-28 25.4 µM

CCCN(CCCC(NC(C)=O)C(=O)NCc1ccccc1)C(=O)NCCCl (stereo not given)
inactive: HOP-92 > 100 µM | UACC-62 > 100 µM | SK-MEL-2 > 100 µM | 786-0 > 100 µM | NCI-H460 > 100 µM | OVCAR-3 > 100 µM | HL-60 > 100 µM | SNB-19 > 100 µM | HOP-62 > 100 µM | KM12 > 100 µM | DMS-114 > 100 µM | MOLT-4 > 100 µM | ACHN > 100 µM | K562 > 100 µM | NCI-H226 > 100 µM | SK-MEL-28 > 100 µM

COC(=O)C1=CO[C@@H](OC2CC(CO)C(O)C(O)C2O)[C@@H]2[C@@H](C)[C@@H](OC(=O)/C=C/c3ccccc3)[C@@H](O)[C@H]12.COC(=O)C1=CO[C@@H](OC2CC(CO)C(O)C(O)C2O)[C@@H]2[C@@H](C)[C@@H](OC(=O)c3ccccc3)[C@@H](O)[C@H]12 (stereo not given in full)
inactive: HOP-92 > 100 µM | UACC-62 > 100 µM | 786-0 > 100 µM | OVCAR-3 > 100 µM | HL-60 > 100 µM | OVCAR-5 > 100 µM | SNB-19 10 µM | HOP-62 > 100 µM | KM12 > 100 µM | DMS-114 > 100 µM | MOLT-4 > 100 µM | ACHN > 100 µM | K562 > 100 µM | NCI-H226 > 100 µM | SK-MEL-28 > 100 µM

CCNCC(=O)O[C@]1(CC)C(=O)OCc2c1cc1n(c2=O)Cc2cc3ccccc3nc2-1
inactive: HOP-92 1.16 µM | MDA-N 1.36 µM | SK-MEL-2 2.77 µM | MDA-MB-231 6.71 µM | OVCAR-3 2.07 µM | SK-MEL-28 3.56 µM
active: UACC-62 0.0468 µM | 786-0 0.0455 µM | NCI-H460 0.0277 µM | HL-60 0.056 µM | OVCAR-5 0.811 µM | NCI/ADR-RES 0.114 µM | SNB-19 0.108 µM | HOP-62 0.0275 µM | KM12 0.778 µM | DMS-114 0.0857 µM | MOLT-4 0.0195 µM | ACHN 0.0441 µM | K562 0.598 µM | NCI-H226 0.115 µM

O=C(Cc1cc[n+]([O-])cc1)C(=O)Nc1cc(Cl)c(Cl)cc1Cl
inactive: HOP-92 38.3 µM | UACC-62 > 100 µM | SK-MEL-2 > 100 µM | 786-0 > 100 µM | NCI-H460 > 100 µM | OVCAR-3 > 100 µM | HL-60 > 100 µM | OVCAR-5 > 100 µM | SNB-19 > 100 µM | HOP-62 > 100 µM | KM12 > 100 µM | DMS-114 > 100 µM | MOLT-4 > 100 µM | ACHN > 100 µM | K562 > 100 µM | SK-MEL-28 > 100 µM

CCCNC1=C(C(=O)OCC)C(=O)CO1
inactive: HOP-92 > 100 µM | UACC-62 > 100 µM | SK-MEL-2 > 100 µM | 786-0 > 100 µM | NCI-H460 > 100 µM | OVCAR-3 > 100 µM | HL-60 > 100 µM | OVCAR-5 > 100 µM | SNB-19 > 100 µM | DMS-114 > 100 µM | MOLT-4 > 100 µM | ACHN > 100 µM | K562 > 100 µM | NCI-H226 > 100 µM | SK-MEL-28 > 100 µM

O=C1NC(=S)NC(=O)C1=CC1CC1
inactive: HOP-92 > 100 µM | UACC-62 > 100 µM | SK-MEL-2 > 100 µM | 786-0 > 100 µM | NCI-H460 > 100 µM | HL-60 > 100 µM | OVCAR-5 > 100 µM | SNB-19 > 100 µM | HOP-62 > 100 µM | KM12 > 100 µM | DMS-114 > 100 µM | MOLT-4 > 100 µM | ACHN > 100 µM | K562 > 100 µM | NCI-H226 > 100 µM | SK-MEL-28 > 100 µM

CC(=O)OC1CC2C(C)(C)C(=O)C=C[C@]2(C)C2CCC3(C)C(=CC(=O)C3c3ccoc3)[C@]12C (stereo not given in full)
inactive: HOP-92 19.9 µM | UACC-62 13 µM | SK-MEL-2 17.9 µM | 786-0 15.5 µM | NCI-H460 11.4 µM | OVCAR-3 11.5 µM | HL-60 14.3 µM | OVCAR-5 22.4 µM | SNB-19 15.6 µM | HOP-62 16.3 µM | KM12 11.9 µM | DMS-114 10 µM | MOLT-4 13.2 µM | ACHN 16.2 µM | K562 9.55 µM | NCI-H226 17.8 µM | SK-MEL-28 15.9 µM

C[C@]12CCC(=O)C=C1CC[C@@H]1[C@@H]2[C@@H](O)C[C@@]2(C)[C@H]1CC[C@]2(O)C(=O)COC(=O)CCC1CCCC1 [HYDROCORTISONE CYPIONATE]
inactive: HOP-92 > 100 µM | UACC-62 > 100 µM | 786-0 > 100 µM | NCI-H460 > 100 µM | OVCAR-3 > 100 µM | HL-60 72.9 µM | SNB-19 > 100 µM | KM12 > 100 µM | DMS-114 > 100 µM | MOLT-4 > 100 µM | ACHN > 100 µM | SK-MEL-28 > 100 µM
active: OVCAR-5 0.0881 µM | NCI-H226 0.0728 µM
